Source: article PMC6515340, “Synthesis of a Fluorous-Tagged Hexasaccharide and Interaction with Growth Factors Using Sugar-Coated Microplates” (Molecules, 2019)
“And” between values parts separate entries of the source, which are not always exact repeats. Identical values can stand only once. “Also recorded” adds a separate entry of the source. Like-named read-outs stand apart in the source and are kept apart here.

How the values were obtained:
Recombinant human NGF = molecular target: T1, Recombinant human NGF (Homo sapiens, UniProt P01138); experiment: Fluorous sugar-coated microplate direct binding assay, NGF
T1 construct: purchased Peprotech
T1 sequence (P01138 122-241): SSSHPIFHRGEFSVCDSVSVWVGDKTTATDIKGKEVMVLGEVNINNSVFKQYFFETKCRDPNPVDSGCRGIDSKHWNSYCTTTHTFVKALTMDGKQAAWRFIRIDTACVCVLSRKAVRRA
Text: (§1) An alternative strategy was also considered to study these molecular recognition events. This approach involved the non-covalent immobilization of the fluorinated hexamer 17 on microtiter plates (Figure 1). Fluorous-based microarrays for the investigation of carbohydrate-protein interactions have been previously developed. A C8F17 tail was employed for the noncovalent immobilization of sugar derivatives on fluorous coated glass slides. However, to the best of our knowledge, an experimental protocol to study the interactions between fluorous sugar-coated conventional microplates and proteins has not been published. […] Thus, we created a fluorinated surface ready for the immobilization of compound 17 through noncovalent fluorous-fluorous interactions. […] Then, the binding of the attached sugar 17 to growth factors was analyzed. Incubation with different concentrations of midkine, FGF-2 and NGF was carried out and the bound protein was detected by further incubations with the corresponding primary and fluorescently labelled secondary antibodies (see Materials and Methods). Finally, the fluorescence was recorded using a standard microplate reader. The observation of fluorescence signals confirmed the interaction between immobilized 17 and the protein at a particular concentration. […]
(§2) The fluorescence was read at 535 nm using a TRIAD multimode microplate reader (from Dynex). […]

midkine [1] = molecular target: T2, midkine (Homo sapiens, UniProt P21741); experiment: Fluorous sugar-coated microplate direct binding assay, midkine; set-up: purchased Peprotech
T2 sequence (P21741 21-143): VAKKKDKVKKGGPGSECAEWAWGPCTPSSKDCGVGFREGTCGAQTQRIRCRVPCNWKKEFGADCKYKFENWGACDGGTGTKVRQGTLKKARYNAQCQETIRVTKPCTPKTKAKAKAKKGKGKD
Text: as §1, §2

FGF-2 [2] = molecular target: T3, FGF-2 (Homo sapiens, UniProt P09038); experiment: Fluorous sugar-coated microplate direct binding assay, FGF-2; set-up: purchased Peprotech
Text: as §1, §2
Target sequence in this assay (P09038 135-288 limits assumed): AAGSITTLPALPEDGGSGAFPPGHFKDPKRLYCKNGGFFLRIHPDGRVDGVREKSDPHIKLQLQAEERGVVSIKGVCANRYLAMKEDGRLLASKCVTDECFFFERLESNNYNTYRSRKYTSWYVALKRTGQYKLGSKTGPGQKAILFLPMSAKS

midkine [3] = molecular target: T2, midkine; experiment: Fluorescence polarization (FP) competition experiment, midkine; format: binding; settings: midkine 63 nM
Text: (§3) Thus, we initiated the study of the interactions between 17 and midkine, FGF-2 and NGF growth factors. First, we estimated the solution-phase binding affinities using our previously reported fluorescence polarization (FP) competition experiment (see Supplementary Materials). Briefly, we measured the ability of hexasaccharide 17 to compete with a fluorescent probe for protein binding. Thus, we calculated IC50 values as 17 concentration required for 50% inhibition. […] We also attempted to measure the binding of 17 to NGF.
(§4) Fluorescence polarization assays
(§5) In order to calculate IC 50 values, fluorescence polarization competition experiments were performed following our previously reported protocol. 1 Briefly, we recorded the fluorescence polarization from wells containing 20 µL of protein solution (midkine or FGF-2) and 10 µL of probe solution (a fluorescein labelled heparin-like hexasaccharide) in the presence of 10 µL of 17 solutions with different concentrations. 384-well microplates from Corning were used in these assays. After shaking in the dark for 5 min, the fluorescence polarization was measured using a TRIAD multimode microplate reader (from Dynex), with excitation and emission wavelengths of 485 and 535 nm, respectively. […]
(also on this page, place not known: r 2 Fluorescence Polarization (mP) r 2 Fluorescence Polarization (mP) r 2 Fluorescence Polarization (mP))

FGF-2 [4] = molecular target: T3, FGF-2; experiment: Fluorescence polarization (FP) competition experiment, FGF-2; format: binding; settings: solution FP competition with fluorescent heparin-like hexasaccharide probe (10 nM), FGF-2 97 nM; average ± SD of three independent experiments
Text: as §3, §4, §5
Target sequence in this assay (P09038 143-288): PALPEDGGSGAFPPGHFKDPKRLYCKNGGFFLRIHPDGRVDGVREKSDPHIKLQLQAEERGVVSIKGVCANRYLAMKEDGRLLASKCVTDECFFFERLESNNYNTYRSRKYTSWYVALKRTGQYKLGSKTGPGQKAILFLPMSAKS
(also on this page, place not known: r 2 Fluorescence Polarization (mP) IC50 r 2 Fluorescence Polarization (mP) IC50 r 2 Fluorescence Polarization (mP))

Concanavalin A = molecular target: T4, Concanavalin A (Canavalia ensiformis, UniProt P02866); experiment: Sugar-coated microplate control with FITC-labelled Concanavalin A; format: binding; settings: fluorescently labelled protein at 11 µM
T4 construct: purchased Sigma
Method: (§6) Importantly, we performed a control experiment in which sugar 3, instead of hexamer 17, was immobilized on the fluorous-functionalized plate (see Supplementary Materials). […] In addition, wells coated with hexamer 17 were incubated with two fluorescently labelled non-GAG binding proteins, Concanavalin A and bovine serum albumin, at 11 µM concentration (see Supplementary Materials). Again, we observed no fluorescence signals from these wells.
(§7) 2. Control experiments using additional (irrelevant) proteins.
(§8) The wells of Nunc Immobilizer AminoTM 384 microtiter plates were functionalized with heptadecafluorononylamine linker and then filled with a solution of hexamer 17 as described in the Materials and Methods section of the main text. The resulting hexasaccharide 17-coated wells were ready to perform protein interaction studies. Blank wells were coated with the fluorous linker alone. […]
(§9) Finally, the fluorescence was read at 535 nm using a TRIAD multimode microplate reader (from Dynex). For each protein, the residual fluorescence intensities obtained from blank samples were subtracted from the sugar-coated well values. In Figure S4, we show the average fluorescence intensities of three replicates after incubation with BSA and ConA. For comparison purposes, we also display the fluorescence values obtained after incubation with a 375 nM solution of midkine (detected by antibody incubations). […]

bovine serum albumin = molecular target: T5, bovine serum albumin (Bos taurus, UniProt P02769); experiment: Sugar-coated microplate control with FITC-labelled bovine serum albumin; format: binding; settings: fluorescently labelled protein at 11 µM
T5 construct: purchased Sigma-Aldrich
T5 sequence (P02769 25-607): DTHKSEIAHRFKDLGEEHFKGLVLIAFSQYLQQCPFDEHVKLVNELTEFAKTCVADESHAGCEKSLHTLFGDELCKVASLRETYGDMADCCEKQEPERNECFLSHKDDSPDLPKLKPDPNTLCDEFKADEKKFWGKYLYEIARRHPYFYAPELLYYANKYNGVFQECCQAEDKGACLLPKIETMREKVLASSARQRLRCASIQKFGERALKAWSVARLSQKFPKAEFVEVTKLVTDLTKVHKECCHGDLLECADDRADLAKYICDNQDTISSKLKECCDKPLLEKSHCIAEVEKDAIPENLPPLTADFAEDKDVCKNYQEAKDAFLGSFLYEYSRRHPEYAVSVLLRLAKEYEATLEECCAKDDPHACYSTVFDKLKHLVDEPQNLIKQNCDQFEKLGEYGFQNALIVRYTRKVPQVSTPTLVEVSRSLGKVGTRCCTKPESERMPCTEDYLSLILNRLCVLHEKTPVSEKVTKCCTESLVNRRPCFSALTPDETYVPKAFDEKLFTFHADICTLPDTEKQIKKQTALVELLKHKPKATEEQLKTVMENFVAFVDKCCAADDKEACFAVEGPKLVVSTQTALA
Method: as §6, §7, §8, §9

[5] = read-out: KD,surf, sugar immobilized on fluorous-functionalized microplate, one-site binding model

`COc1ccc(O[C@@H]2O[C@H](COC(=O)CCC(F)(F)C(F)(F)C(F)(F)C(F)(F)C(F)(F)C(F)(F)C(F)(F)C(F)(F)F)[C@@H](O)[C@H](OCc3ccccc3)[C@H]2OC(=O)c2ccccc2)cc1` [Compound 3] was tested, and the “fluorescence signal / interaction of immobilized sugar with NGF” value (Recombinant human NGF; control, sugar immobilized from 250 µM solution, 1.8 µM NGF) was “did not significantly interact; also recorded: No fluorescence signals above background”, the “fluorescence signal / interaction of immobilized sugar with midkine” value (midkine [1]; control, sugar immobilized from 250 µM solution, 375 nM midkine) was “did not significantly interact; also recorded: No fluorescence signals above background” and the “fluorescence signal / interaction of immobilized sugar with FGF-2” value (FGF-2 [2]; control, sugar immobilized from 250 µM solution, 387 nM FGF-2) was “did not significantly interact; also recorded: No fluorescence signals above background”.
In the case of `COc1ccc(OC2OC(COC(=O)CCC(F)(F)C(F)(F)C(F)(F)C(F)(F)C(F)(F)C(F)(F)C(F)(F)C(F)(F)F)C(OC3OC(COS(=O)(=O)O)C(OS(=O)(=O)O)C(OC4OC(COC(=O)C(C)(C)C)C(OC5OC(COS(=O)(=O)O)C(OS(=O)(=O)O)C(OC6OC(COC(=O)C(C)(C)C)C(OC7OC(COS(=O)(=O)O)C(OS(=O)(=O)O)C(OC(=O)CCC(C)=O)C7N7C(=O)c8ccccc8C7=O)C(OCc7ccccc7)C6OC(=O)c6ccccc6)C5N5C(=O)c6ccccc6C5=O)C(OCc5ccccc5)C4OC(=O)c4ccccc4)C3N3C(=O)c4ccccc4C3=O)C(OCc3ccccc3)C2OC(=O)c2ccccc2)cc1` (centres unmarked) [Compound 17], the IC50 (midkine [3]; Figure S1, individual competition curves, probe 10 nM, read-out: IC50 (single independent experiment)) is reported as 428 nM and 479 nM and 431 nM, the IC50 (midkine [3]; solution FP competition with fluorescent heparin-like hexasaccharide probe (10 nM), average ± SD of three independent experiments, read-out: IC50) is reported as 450 ± 30 nM and the IC50 (FGF-2 [4]) is reported as 6.3 ± 1.6 µM. The Kd (Recombinant human NGF; [5]) was 1600 ± 400 nM, the “interaction of immobilized sugar with Concanavalin A” value (Concanavalin A) was “did not interact” and the “interaction of immobilized sugar with bovine serum albumin” value (bovine serum albumin) was “did not interact”. It also gave a Kd (midkine [1]; [5]) of 16 ± 5 nM and a Kd (FGF-2 [2]; [5]) of 57 ± 10 nM.
